Measurements taken from paper PMC6747015, “Structure–function study of a novel inhibitor of the casein kinase 1 family in Arabidopsis thaliana” (Plant Direct, 2019).

Columns and labels:
[1] = target: CKL1 (Arabidopsis thaliana, UniProt P42158); assay: In vitro CKL1 kinase activity; type: biochemical
Description: Supplemental Figure3.InvitroCKL1 kinaseactivitywithAMI-331.

[2] = test system: PRR7; assay: RT-qPCR of the CK1 downstream gene PRR7; type: in vivo, Arabidopsis; conditions: 6 hr
Experimental: Arabidopsis Col‐0 seedlings that had been grown under constant light conditions for […] were immersed in 10 or 50 µM of the GSK‐3, SHAGGY‐related, and BIN2 kinase inhibitor Bikinin (SML0094, Sigma) (De Rybel et al., 2009), […], or DMSO as control for 6 hr. Three biological replicates were used for each assay. Harvested seedlings were frozen in liquid nitrogen and crushed with zirconia beads in a Tissue Lyser II, and RNA was isolated with Illustra RNAspin (25‐0500‐72, GE Healthcare). RT‐qPCR was performed as described previously (Nakamichi et al., 2010) using an Eco Real‐Time PCR System (Illumina). Gene expression was normalized against IPP2, and maximal values were set to 1. Primers for detecting IPP2, PRR7, GR60ox2, and CPD were described previously (De Rybel et al., 2009; Kamioka et al., 2016).
Because the ATSK family was identified by the molecular probe assay as potential targets of AMI‐331, even though the affinities between AMI‐331 and ATSKs were not as high as between AMI‐331 and CK1, we used the ATSK inhibitor Bikinin to determine if AMI‐331 treatment affects the expression of genes downstream of ATSKs (De Rybel et al., 2009). Four‐day‐old Arabidopsis seedlings grown under constant light conditions were treated with Bikinin or AMI‐331 for 6 hr, and mRNA extracted from seedlings samples was analyzed by RT‐qPCR.

[3] = target: T1, CKL1 (AT4G26100) (Arabidopsis thaliana, UniProt P42158); assay: AMI‐329 bead binding with AMI‐331 competitor, CKL1
T1 construct: from tissue; host or cells: Arabidopsis seedlings, two weeks old
T1 sequence (P42158 whole entry): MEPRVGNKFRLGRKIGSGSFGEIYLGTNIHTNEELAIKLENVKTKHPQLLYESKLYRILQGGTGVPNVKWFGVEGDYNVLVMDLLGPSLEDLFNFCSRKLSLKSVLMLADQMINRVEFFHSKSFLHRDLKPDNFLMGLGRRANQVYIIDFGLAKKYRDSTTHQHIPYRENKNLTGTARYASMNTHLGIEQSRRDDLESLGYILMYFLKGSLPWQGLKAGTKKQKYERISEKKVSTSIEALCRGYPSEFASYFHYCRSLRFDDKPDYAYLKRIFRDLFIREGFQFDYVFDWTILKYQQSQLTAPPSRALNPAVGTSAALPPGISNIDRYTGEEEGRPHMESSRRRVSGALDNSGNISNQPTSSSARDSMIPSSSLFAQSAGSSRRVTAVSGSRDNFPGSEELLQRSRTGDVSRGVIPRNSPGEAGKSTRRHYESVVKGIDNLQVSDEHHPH
Experimental: (§1) Screening for proteins bound to AMI‐329 beads was done by a method similar to what has previously been described (Uehara et al., 2019). Briefly, two‐week‐old seedlings grown under LD conditions were harvested at time points ZT2, ZT6, ZT9, and ZT17, and stored at −80°C. Proteins from the frozen plant samples were incubated with 0, 5, or 50 µM of AMI‐331 at 4°C for 30 min with rotary mixing. Two technical replicates were used for each experiment. PBS‐washed AMI‐329 beads were added to the protein samples and gently rotated at 4°C for 1 hr. AMI‐329 bead resins were washed with bead buffer (Uehara et al., 2019) six times. The washed resins were suspended in SDS sample buffer and boiled for 8 min. Protein samples were in‐gel‐digested as previously described (Uehara et al., 2019). Peptides were analyzed with a Q Exactive hybrid quadrupole‐orbitrap mass spectrometer (Thermo Fisher Scientific), as described previously (Uehara et al., 2019). […]
(§2) However, another possible mechanism for the strong AMI‐331 biological activity in vivo is that it targets proteins other than the CK1 family for period lengthening. […] It is noteworthy that kinase AT4G08800 is very similar to the CKL family, but the ATP‐binding pocket of mammalian CK1 as determined by its crystal structure (Shinohara et al., 2017) was absent from AT4G08800, as shown in an Araport 11 model (https://www.araport.org). […]

[4] = target: T2, CKL2 (AT1G72710) (Arabidopsis thaliana, UniProt Q9CAI5); assay: AMI‐329 bead binding with AMI‐331 competitor, CKL2
T2 construct: from tissue; host or cells: Arabidopsis seedlings, two weeks old
T2 sequence (Q9CAI5 whole entry): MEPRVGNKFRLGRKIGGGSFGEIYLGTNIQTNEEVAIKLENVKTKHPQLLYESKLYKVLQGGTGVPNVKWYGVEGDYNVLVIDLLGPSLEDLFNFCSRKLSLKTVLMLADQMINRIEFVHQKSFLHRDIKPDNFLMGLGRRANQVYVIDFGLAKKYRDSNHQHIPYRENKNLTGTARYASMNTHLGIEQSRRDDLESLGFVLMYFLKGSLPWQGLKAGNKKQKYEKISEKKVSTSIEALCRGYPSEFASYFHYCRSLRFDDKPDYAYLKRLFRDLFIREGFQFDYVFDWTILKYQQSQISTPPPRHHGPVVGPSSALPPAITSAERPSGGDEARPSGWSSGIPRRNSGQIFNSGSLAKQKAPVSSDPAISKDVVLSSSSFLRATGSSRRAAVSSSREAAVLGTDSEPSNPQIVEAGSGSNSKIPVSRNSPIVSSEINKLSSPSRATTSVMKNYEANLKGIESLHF
Experimental: as §1, §2

[5] = target: T3, CKL3 (AT4G28880) (Arabidopsis thaliana, UniProt Q93Z18); assay: AMI‐329 bead binding with AMI‐331 competitor, CKL3
T3 construct: from tissue; host or cells: Arabidopsis seedlings, two weeks old
T3 sequence (Q93Z18 whole entry): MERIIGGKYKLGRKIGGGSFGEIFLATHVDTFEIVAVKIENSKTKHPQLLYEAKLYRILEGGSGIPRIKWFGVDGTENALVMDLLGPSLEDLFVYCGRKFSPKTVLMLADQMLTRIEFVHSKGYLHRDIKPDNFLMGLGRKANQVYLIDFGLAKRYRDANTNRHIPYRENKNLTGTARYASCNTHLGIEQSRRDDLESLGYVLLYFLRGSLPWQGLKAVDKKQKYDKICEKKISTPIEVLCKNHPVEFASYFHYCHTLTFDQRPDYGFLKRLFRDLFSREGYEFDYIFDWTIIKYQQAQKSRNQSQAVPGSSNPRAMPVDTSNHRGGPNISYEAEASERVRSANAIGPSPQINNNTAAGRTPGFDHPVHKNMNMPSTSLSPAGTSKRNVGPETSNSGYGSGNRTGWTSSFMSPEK
Experimental: as §1, §2

[6] = target: T4, CKL4 (AT4G28860) (Arabidopsis thaliana, UniProt Q8LPI7); assay: AMI‐329 bead binding with AMI‐331 competitor, CKL4
T4 construct: from tissue; host or cells: Arabidopsis seedlings, two weeks old
T4 sequence (Q8LPI7 whole entry): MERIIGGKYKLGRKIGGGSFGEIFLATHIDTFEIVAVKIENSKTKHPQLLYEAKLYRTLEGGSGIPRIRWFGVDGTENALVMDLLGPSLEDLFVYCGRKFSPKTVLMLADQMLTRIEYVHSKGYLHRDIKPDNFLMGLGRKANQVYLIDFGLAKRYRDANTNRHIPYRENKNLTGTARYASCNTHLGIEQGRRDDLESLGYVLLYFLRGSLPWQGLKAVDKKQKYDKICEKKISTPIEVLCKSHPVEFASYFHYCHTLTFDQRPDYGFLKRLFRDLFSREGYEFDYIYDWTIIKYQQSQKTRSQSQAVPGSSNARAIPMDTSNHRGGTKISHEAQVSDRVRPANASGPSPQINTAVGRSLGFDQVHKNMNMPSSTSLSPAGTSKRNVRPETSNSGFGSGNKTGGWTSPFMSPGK
Experimental: as §1, §2

[7] = target: T5, CKL13 (AT1G04440) (Arabidopsis thaliana, UniProt Q5XF24); assay: AMI‐329 bead binding with AMI‐331 competitor, CKL13
T5 construct: from tissue; host or cells: Arabidopsis seedlings, two weeks old
T5 sequence (Q5XF24 whole entry): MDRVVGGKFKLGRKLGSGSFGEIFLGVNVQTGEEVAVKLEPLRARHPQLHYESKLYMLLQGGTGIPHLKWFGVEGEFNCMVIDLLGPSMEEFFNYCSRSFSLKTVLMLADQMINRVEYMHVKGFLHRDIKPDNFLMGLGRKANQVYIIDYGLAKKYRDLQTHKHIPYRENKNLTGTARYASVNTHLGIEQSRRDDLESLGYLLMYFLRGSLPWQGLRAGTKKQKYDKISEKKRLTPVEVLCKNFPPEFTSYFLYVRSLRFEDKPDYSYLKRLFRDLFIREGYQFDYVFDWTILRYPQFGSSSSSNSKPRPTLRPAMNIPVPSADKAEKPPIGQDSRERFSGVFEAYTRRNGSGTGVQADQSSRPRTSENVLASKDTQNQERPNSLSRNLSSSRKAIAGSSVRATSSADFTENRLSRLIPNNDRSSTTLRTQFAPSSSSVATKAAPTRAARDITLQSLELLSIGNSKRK
Experimental: as §1, §2

[8] = target: T6, HYD1 (AT1G20050) (Arabidopsis thaliana, UniProt O48962); assay: AMI‐329 bead binding with AMI‐331 competitor, HYD1
T6 construct: from tissue; host or cells: Arabidopsis seedlings, two weeks old
T6 sequence (O48962 whole entry): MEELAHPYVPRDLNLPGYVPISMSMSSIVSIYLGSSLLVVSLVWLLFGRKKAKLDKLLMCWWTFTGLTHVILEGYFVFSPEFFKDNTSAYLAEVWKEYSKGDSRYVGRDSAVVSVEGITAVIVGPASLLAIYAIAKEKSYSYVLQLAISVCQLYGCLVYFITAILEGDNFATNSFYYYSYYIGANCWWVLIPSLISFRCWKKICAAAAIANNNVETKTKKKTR
Experimental: as §1, §2

[9] = target: T7, RNA‐binding AT3G15010 (Arabidopsis thaliana, UniProt Q9LKA4); assay: AMI‐329 bead binding with AMI‐331 competitor, RNA‐binding protein AT3G15010
T7 construct: Proteins from the frozen plant samples were incubated with 0, 5, or 50 µM of AMI‐331; from tissue; host or cells: two-week-old Arabidopsis seedlings (protein lysate)
T7 sequence (Q9LKA4 whole entry): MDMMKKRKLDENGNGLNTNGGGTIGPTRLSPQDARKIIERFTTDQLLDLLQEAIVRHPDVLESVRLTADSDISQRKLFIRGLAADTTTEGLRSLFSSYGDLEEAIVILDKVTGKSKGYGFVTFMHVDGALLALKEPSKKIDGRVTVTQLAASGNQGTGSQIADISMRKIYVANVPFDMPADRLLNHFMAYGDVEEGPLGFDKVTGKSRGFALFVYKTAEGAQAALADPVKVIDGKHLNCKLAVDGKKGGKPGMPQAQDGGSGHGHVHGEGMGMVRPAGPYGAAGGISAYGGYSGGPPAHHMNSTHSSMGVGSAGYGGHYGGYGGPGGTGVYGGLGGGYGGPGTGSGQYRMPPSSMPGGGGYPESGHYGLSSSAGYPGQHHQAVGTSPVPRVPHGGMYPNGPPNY
Experimental: as §1, §2

CKL1, sequence (P42158 whole entry): as the sequence (P42158 whole entry) above

`C#CCn1c2c(c(Br)c1-c1ccncc1)C(=O)NCC2.Cl` [AMI‐331] was tested, and the IC50 [1] was 1400 nM, the PRR7 transcript abundance ([2]; 1 µM) was “significantly decreased” and the PRR7 transcript abundance ([2]; 5 and 25 µM) was “decreased”. The “Spectra (PSMs) AMI‐329 beads bound” value ([3]; competitor AMI‐331 5 µM) was 2 PSMs, the “Spectra (PSMs) AMI‐329 beads bound” value ([3]; competitor AMI‐331 50 µM) was 0 PSMs and the “Spectra (PSMs) AMI‐329 beads bound” value ([4]; competitor AMI‐331 5 µM) was 1 PSMs. For the same compound, the “Spectra (PSMs) AMI‐329 beads bound” value ([4]; competitor AMI‐331 50 µM) was 0 PSMs, the “Spectra (PSMs) AMI‐329 beads bound” value ([5]; competitor AMI‐331 5 µM) was 1 PSMs and the “Spectra (PSMs) AMI‐329 beads bound” value ([5]; competitor AMI‐331 50 µM) was 0 PSMs. For the same compound, the “Spectra (PSMs) AMI‐329 beads bound” value ([6]; competitor AMI‐331 5 µM) was 1 PSMs, the “Spectra (PSMs) AMI‐329 beads bound” value ([6]; competitor AMI‐331 50 µM) was 0 PSMs and the “Spectra (PSMs) AMI‐329 beads bound” value ([7]; competitor AMI‐331 5 µM) was 0 PSMs. For the same compound, the “Spectra (PSMs) AMI‐329 beads bound” value ([7]; competitor AMI‐331 50 µM) was 0 PSMs, the “Spectra (PSMs) AMI‐329 beads bound” value ([8]; competitor AMI‐331 5 µM) was 0 PSMs and the “Spectra (PSMs) AMI‐329 beads bound” value ([8]; competitor AMI‐331 50 µM) was 0 PSMs. The “Spectra (PSMs) AMI‐329 beads bound” value ([9]; competitor AMI‐331 5 µM) was 0 PSMs and the “Spectra (PSMs) AMI‐329 beads bound” value ([9]; competitor AMI‐331 50 µM) was 0 PSMs.
